Results published in patent US20250163104A1, “MACROCYCLIC IMMUNOMODULATORS” (priority 2021, published 2025).
pIC50: −log10 of the molar value. Where a SMILES comes first, the peptide text is derived from it. Bridges are numbered along the chain shown (N, C = ends). [ ]: non-standard residue; d: D form. The star is where a group is joined. ξ: configuration not given here. Ala(1H-tetrazol-5-yl) = N[C@@H](Cc1nnn[nH]1)C(=O)O; Phe(4-COOH) = N[C@@H](Cc1ccc(C(=O)O)cc1)C(=O)O; Bip = N[C@@H](Cc1ccc(-c2ccccc2)cc1)C(=O)O; Phe(3-Me) = Cc1cccc(C[C@H](N)C(=O)O)c1; Val(3-OH) = CC(C)(O)[C@H](N)C(=O)O; 4Pal = N[C@@H](Cc1ccncc1)C(=O)O; Cha = N[C@@H](CC1CCCCC1)C(=O)O; Cit = NC(=O)NCCC[C@H](N)C(=O)O; Thr(3ξ) = CC(O)[C@H](N)C(=O)O; dNle = CCCC[C@@H](N)C(=O)O; Carboxymethyl = O=C(O)C*; Nle = CCCC[C@H](N)C(=O)O; Orn = NCCC[C@H](N)C(=O)O; Pra = C#CC[C@H](N)C(=O)O; Dab = NCC[C@H](N)C(=O)O; Dap = NC[C@H](N)C(=O)O

Target: T1, human PD-1 / PD-L1-Ig binding on Jurkat cell line over-expressing human PD-1 (Jurkat-PD-1) (Homo sapiens, UniProt Q15116)
T1 construct: expressed in transfected cells; host or cells: Jurkat
T1 sequence (Q15116 25-288): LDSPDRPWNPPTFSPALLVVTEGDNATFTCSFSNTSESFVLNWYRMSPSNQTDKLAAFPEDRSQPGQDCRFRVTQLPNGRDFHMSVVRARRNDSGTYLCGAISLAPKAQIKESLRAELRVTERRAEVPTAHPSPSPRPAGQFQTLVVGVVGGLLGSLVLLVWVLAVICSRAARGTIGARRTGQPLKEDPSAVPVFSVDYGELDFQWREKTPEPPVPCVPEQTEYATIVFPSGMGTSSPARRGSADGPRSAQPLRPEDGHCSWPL
Assay: Jurkat-PD-1 Cell Binding High-Content Screening Assay (CBA)
Assay type: cell-based
Details: Jurkat HPD1_PDL1 IC50, Jurkat-PD-1 cells, PE-labeled PD-L1-Ig 20 nM final
Summary of the method: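 PE-PD-L1-Ig 20 nM final; cells in DMEM/10% FCS; cpd pre-incubation 2 h, 37° C; ligand 1 h; PFA fix + Hoechst 33342; high-content imaging read-out.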

For `CC[C@H](C)[C@@H]1NC(=O)[C@H](Cc2ccc(-c3ccccc3)cc2)NC(=O)[C@H](C(C)C)NC(=O)[C@H](Cc2c[nH]c3ccccc23)NC(=O)[C@H](CC(=O)O)NC(=O)[C@H](Cc2ccncc2)NC(=O)[C@H](Cc2ccc(OCC(=O)O)cc2)NC(=O)CSC[C@@H](C(=O)N[C@@H](C)C(N)=O)NC(=O)[C@H]([C@@H](C)O)NC(=O)[C@H](C(C)C)NC(=O)[C@H](CC2CCCCC2)NC(=O)[C@H](Cc2c[nH]cn2)NC(=O)[C@@H](CC(C)C)NC(=O)[C@H](CCCN)NC1=O` [Compound 1604], the pIC50 was 7.34.

Same assay, conditions: Jurkat-PD-1 cells, PE-labeled PD-L1-Ig 20 nM final; read-out: Jurkat HPD1_PDL1 IC50

Point of comparison: `Cc1cccc(C[C@@H]2NC(=O)[C@H](Cc3nn[nH]n3)NC(=O)[C@H](Cc3ccc(OCC(=O)O)cc3)NC(=O)[C@H](CN)NC(=O)CSC[C@@H](C(=O)N[C@@H](C)C(N)=O)NC(=O)[C@H]([C@@H](C)O)NC(=O)[C@H](C(C)C)NC(=O)[C@H](CC3CCCCC3)NC(=O)[C@H](CCN)NC(=O)[C@@H](CC(C)C)NC(=O)[C@H](CCCN)NC(=O)[C@H](CCCNC(N)=O)NC(=O)[C@H](Cc3ccc(-c4ccccc4)cc3)NC(=O)[C@H](C(C)C)NC2=O)c1` [Compound 1327] ({CH2CO}-[Dap]Y(Carboxymethyl)[Ala(1H-tetrazol-5-yl)][Phe(3-Me)]V[Bip][Cit][Orn][dL][Dab][Cha]VTCA-NH2; thioether N-14), pIC50 7.50. Against it:
- C#CC[C@H](NC(=O)[C@H](CCN)NC(=O)[C@@H]1CSCC(=O)N[C@@H](CCN)C(=O)N[C@@H](Cc2ccc(OCC(=O)O)cc2)C(=O)N[C@@H](CC(=O)O)C(=O)N[C@@H](Cc2cccc(C)c2)C(=O)N[C@@H](Cc2ccc(OCC(=O)O)cc2)C(=O)N[C@@H](Cc2ccc(-c3ccccc3)cc2)C(=O)N[C@@H](Cc2ccc(OCC(=O)O)cc2)C(=O)N[C@@H](CCCN)C(=O)N[C@H](CC(C)C)C(=O)N[C@@H](CCN)C(=O)N[C@@H](CC2CCCCC2)C(=O)N[C@@H](C(C)(C)O)C(=O)N[C@@H](CO)C(=O)N1)C(N)=O [Compound 1851] ({CH2CO}-[Dab]Y(Carboxymethyl)D[Phe(3-Me)]Y(Carboxymethyl)[Bip]Y(Carboxymethyl)[Orn][dL][Dab][Cha][Val(3-OH)]SC[Dab][Pra]-NH2; thioether N-14) — 0.78 log units higher, 8.28
- CC(C)C[C@H]1NC(=O)[C@H](CCCN)NC(=O)[C@H](CCC(=O)O)NC(=O)[C@H](Cc2ccc(-c3ccccc3)cc2)NC(=O)[C@H](C(C)C)NC(=O)[C@H](Cc2c[nH]c3ccccc23)NC(=O)[C@H](CC(=O)O)NC(=O)[C@H](Cc2ccc(-c3cccc(C(=O)O)c3)cc2)NC(=O)[C@H](Cc2ccc(OCC(=O)O)cc2)NC(=O)CSC[C@@H](C(=O)N[C@@H](C)C(N)=O)NC(=O)[C@H]([C@@H](C)O)NC(=O)[C@H](C(C)C)NC(=O)[C@H](CC2CCCCC2)NC(=O)[C@H](CCN)NC1=O [Compound 2163] — 0.25 log units higher, 7.75
- Cc1cccc(C[C@@H]2NC(=O)[C@H](CC(=O)O)NC(=O)[C@H](Cc3ccc(C(=O)O)cc3)NC(=O)[C@H](CCN)NC(=O)CSC[C@@H](C(=O)N[C@@H](CCN)C(N)=O)NC(=O)[C@H](CO)NC(=O)[C@H](C(C)(C)O)NC(=O)[C@H](CC3CCCCC3)NC(=O)[C@H](CCN)NC(=O)[C@@H](CC(C)C)NC(=O)[C@H](CCCN)NC(=O)[C@H](Cc3ccc(C(=O)O)cc3)NC(=O)[C@H](Cc3ccc(-c4ccccc4)cc3)NC(=O)[C@H](Cc3ccc(C(=O)O)cc3)NC2=O)c1 [Example 2709] ({CH2CO}-[Dab][Phe(4-COOH)]D[Phe(3-Me)][Phe(4-COOH)][Bip][Phe(4-COOH)][Orn][dL][Dab][Cha][Val(3-OH)]SC[Dab]-NH2; thioether N-14) — 1.14 log units higher, 8.64
- CCCC[C@H]1NC(=O)[C@H](CCCN)NC(=O)[C@H](CCC(=O)O)NC(=O)[C@H](Cc2ccc(-c3ccccc3)cc2)NC(=O)[C@H](C(C)C)NC(=O)[C@H](Cc2c[nH]c3ccccc23)NC(=O)[C@H](CC(=O)O)NC(=O)[C@H](Cc2ccncc2)NC(=O)[C@H](Cc2ccc(OCC(=O)O)cc2)NC(=O)CSC[C@@H](C(=O)N[C@@H](C)C(N)=O)NC(=O)[C@H]([C@@H](C)O)NC(=O)[C@H](C(C)C)NC(=O)[C@H](CC2CCCCC2)NC(=O)[C@H](CCN)NC1=O [Compound 1451] ({CH2CO}-Y(Carboxymethyl)[4Pal]DWV[Bip]E[Orn][dNle][Dab][Cha]VTCA-NH2; thioether N-14) — 0.49 log units higher, 7.99
- Cc1cccc(C[C@@H]2NC(=O)[C@H](CC(N)=O)NC(=O)[C@H](Cc3ccc(C(=O)O)cc3)NC(=O)[C@H](CC(C)C)NC(=O)CSC[C@@H](C(=O)N[C@@H](CCN)C(N)=O)NC(=O)[C@H](CCC(=O)O)NC(=O)[C@H](C(C)C)NC(=O)[C@H](CC3CCCCC3)NC(=O)[C@H](CCN)NC(=O)[C@@H](CC(C)C)NC(=O)[C@H](CCCN)NC(=O)[C@H](Cc3ccc(C(=O)O)cc3)NC(=O)[C@H](Cc3ccc(-c4ccccc4)cc3)NC(=O)[C@H](Cc3ccc(C(=O)O)cc3)NC2=O)c1 [Example 2721] ({CH2CO}-L[Phe(4-COOH)]N[Phe(3-Me)][Phe(4-COOH)][Bip][Phe(4-COOH)][Orn][dL][Dab][Cha]VEC[Dab]-NH2; thioether N-14) — 0.78 log units lower, 6.72
- CC(C)C[C@H]1NC(=O)[C@H](CN)NC(=O)[C@H](C(C)C)NC(=O)[C@H](Cc2ccc(-c3ccccc3)cc2)NC(=O)[C@H](C(C)C)NC(=O)[C@H](Cc2c[nH]c3ccccc23)NC(=O)[C@H](CC(=O)O)NC(=O)[C@H](Cc2ccc(O)cc2)NC(=O)[C@H](Cc2ccccc2)NC(=O)CSC[C@@H](C(=O)NCC(N)=O)NC(=O)[C@H](CO)NC(=O)[C@H](C(C)C)NC(=O)[C@H](CC2CCCCC2)NC(=O)[C@H](CC(N)=O)NC1=O [Compound 1412] ({CH2CO}-FYDWV[Bip]V[Dap][dL]N[Cha]VSCG-NH2; thioether N-14) — within 0.2 log units, 7.57
- C#CC[C@H](NC(=O)[C@H](CCN)NC(=O)[C@@H]1CSCC(=O)N[C@@H](CN)C(=O)N[C@@H](Cc2ccc(OCC(=O)O)cc2)C(=O)N[C@@H](CC(=O)O)C(=O)N[C@@H](Cc2cccc(C)c2)C(=O)N[C@@H](Cc2ccc(OCC(=O)O)cc2)C(=O)N[C@@H](Cc2ccc(-c3ccccc3)cc2)C(=O)N[C@@H](Cc2ccc(OCC(=O)O)cc2)C(=O)N[C@@H](CCCN)C(=O)N[C@H](CC(C)C)C(=O)N[C@@H](CCN)C(=O)N[C@@H](CC2CCCCC2)C(=O)N[C@@H](C(C)C)C(=O)N[C@@H](CO)C(=O)N1)C(N)=O [Compound 1861] ({CH2CO}-[Dap]Y(Carboxymethyl)D[Phe(3-Me)]Y(Carboxymethyl)[Bip]Y(Carboxymethyl)[Orn][dL][Dab][Cha]VSC[Dab][Pra]-NH2; thioether N-14) — 0.47 log units higher, 7.97
- CCCC[C@@H]1NC(=O)[C@H](CCN)NC(=O)[C@@H](CC(C)C)NC(=O)[C@H](CCCN)NC(=O)[C@H](C(C)C)NC(=O)[C@H](Cc2ccc(-c3ccccc3)cc2)NC(=O)[C@H](CC(C)C)NC(=O)[C@H](Cc2c[nH]c3ccccc23)NC(=O)[C@H](CC(=O)O)NC(=O)[C@H](Cc2ccc(OCC(=O)O)cc2)NC(=O)[C@H](CN)NC(=O)CSC[C@@H](C(=O)NCC(N)=O)NC(=O)[C@H](CO)NC(=O)[C@H](C(C)C)NC1=O [Compound 1408] ({CH2CO}-[Dap]Y(Carboxymethyl)DWL[Bip]V[Orn][dL][Dab][Nle]VSCG-NH2; thioether N-14) — 0.59 log units higher, 8.09
- CC(C)C[C@H]1NC(=O)[C@H](CCCN)NC(=O)[C@H](CCC(=O)O)NC(=O)[C@H](Cc2ccc(-c3ccccc3)cc2)NC(=O)[C@H](C(C)C)NC(=O)[C@H](Cc2c[nH]c3ccccc23)NC(=O)[C@H](CC(=O)O)NC(=O)[C@H](Cc2ccc(OCC(=O)O)cc2)NC(=O)[C@H](CN)NC(=O)CSC[C@@H](C(=O)N[C@@H](C)C(N)=O)NC(=O)[C@H]([C@@H](C)O)NC(=O)[C@H](C(C)C)NC(=O)[C@H](Cc2ccc(O)cc2)NC(=O)[C@H](CCN)NC1=O [Compound 1686] ({CH2CO}-[Dap]Y(Carboxymethyl)DWV[Bip]E[Orn][dL][Dab]YVTCA-NH2; thioether N-14) — 0.83 log units lower, 6.67
- CC(=O)NCCCC[C@@H]1NC(=O)CSC[C@@H](C(=O)N[C@@H](CO)C(N)=O)NC(=O)[C@H](C(C)O)NC(=O)[C@H](C(C)C)NC(=O)[C@H](CC2CCCCC2)NC(=O)[C@H](CCN)NC(=O)[C@@H](CC(C)C)NC(=O)[C@H](CCCN)NC(=O)[C@H](CCCNC(N)=O)NC(=O)[C@H](Cc2ccc(-c3ccccc3)cc2)NC(=O)[C@H](C(C)C)NC(=O)[C@H](Cc2cccc(C)c2)NC(=O)[C@H](CC(=O)O)NC(=O)[C@H](Cc2ccc(OCC(=O)O)cc2)NC1=O (stereo partly drawn) [Compound 2595] ({CH2CO}-K(Ac)Y(Carboxymethyl)D[Phe(3-Me)]V[Bip][Cit][Orn][dL][Dab][Cha]V[Thr(3ξ)]CS-NH2; thioether N-14) — 0.50 log units higher, 8.00
- Cc1cccc(C[C@@H]2NC(=O)[C@H](CC(=O)O)NC(=O)[C@H](Cc3ccc(OCC(=O)O)cc3)NC(=O)[C@H](CN)NC(=O)CSC[C@@H](C(=O)N[C@@H](C)C(N)=O)NC(=O)[C@H]([C@@H](C)O)NC(=O)[C@H](C(C)C)NC(=O)[C@H](CC3CCCCC3)NC(=O)[C@H](Cc3cnc[nH]3)NC(=O)[C@@H](CC(C)C)NC(=O)[C@H](CCCN)NC(=O)[C@H](C(C)C)NC(=O)[C@H](Cc3ccc(-c4ccccc4)cc3)NC(=O)[C@H](C(C)C)NC2=O)c1 [Compound 1579] — 0.25 log units higher, 7.75
- CC(C)C[C@H]1NC(=O)[C@H](CCCN)NC(=O)[C@H](CCCNC(N)=O)NC(=O)[C@H](Cc2ccc(-c3ccccc3)cc2)NC(=O)[C@H](C(C)C)NC(=O)[C@H](Cc2c[nH]c3ccccc23)NC(=O)[C@H](CC(=O)O)NC(=O)[C@H](Cc2csc3ccccc23)NC(=O)[C@H](CN)NC(=O)CSC[C@@H](C(=O)N[C@@H](C)C(N)=O)NC(=O)[C@H]([C@@H](C)O)NC(=O)[C@H](C(C)C)NC(=O)[C@H](CC2CCCCC2)NC(=O)[C@H](CCN)NC1=O [Compound 2114] — 0.34 log units lower, 7.16
